# Target: Solute carrier family 2, facilitated glucose transporter member 4 (Homo sapiens) (UniProt P14672)
# Assay: GLUT4 glucose uptake inhibitors and substrates, dose response, cell-based, flow cytometry, glucose FRET sensor, HEK293 JumpIN TRex, wild type (AID 1794828)
# Conditions: HEK293 JumpIN SLC2A4-OE
# Chain of Solute carrier family 2, facilitated glucose transporter member 4 (Homo sapiens) (P14672 whole entry, looked up): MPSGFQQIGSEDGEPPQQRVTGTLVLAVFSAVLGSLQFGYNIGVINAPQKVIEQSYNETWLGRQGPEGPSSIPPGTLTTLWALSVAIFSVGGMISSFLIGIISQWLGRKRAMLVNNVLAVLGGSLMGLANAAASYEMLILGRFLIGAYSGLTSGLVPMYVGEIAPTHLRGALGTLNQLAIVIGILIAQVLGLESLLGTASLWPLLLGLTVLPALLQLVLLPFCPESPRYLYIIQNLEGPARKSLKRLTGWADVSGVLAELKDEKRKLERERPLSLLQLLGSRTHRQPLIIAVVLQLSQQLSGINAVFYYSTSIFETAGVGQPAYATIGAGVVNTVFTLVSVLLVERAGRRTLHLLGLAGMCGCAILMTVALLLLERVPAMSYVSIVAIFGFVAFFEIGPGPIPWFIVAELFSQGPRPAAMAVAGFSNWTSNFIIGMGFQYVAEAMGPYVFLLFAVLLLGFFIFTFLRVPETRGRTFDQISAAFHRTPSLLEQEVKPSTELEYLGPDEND
IC50,"EC50 (substrate uptake, increase)",SMILES
5.5 µM,–,Cc1c(NC(=O)c2cc(C(N)=O)nc3cc(F)ccc23)c(C(F)(F)F)nn1Cc1ccc(C#N)cc1
–,860 µM,OC[C@H]1OC(O)[C@H](O)[C@@H](O)[C@@H]1O (stereo partly drawn)
2.5 µM,–,O=C(Oc1cccc(F)c1OC(=O)c1cccc(O)c1)c1cccc(O)c1
